Results on four compounds are retold here after US6071525A, “Whitening cosmetics containing mulberrin” (priority 1997, dated 2000).

Entries after “also recorded” stand apart in the source; their conditions may differ. Like-named read-outs stand apart in the source and are kept apart here.

Data set [1] deals with skin. The settings on record: background; cited from earlier work.
The subject of data set [2] is skin. Particulars: background; cited from earlier work. This is another data set of the same source.
The subject of data set [3] is tyrosinase. Particulars: background; cited from earlier work.
Data set [4] deals with B-16 melanoma (ATCC CRL 6323) cell line. The data set is described as follows: Effect for melanin synthesis in melanocytes (B-16 melanoma). Format: cell-based, mouse. Here is the method:
As melanocytes, commercially available B-16 melanoma (ATCC CRL 6323) cell line derived from mouse was used. The melanoma cell line was inoculated in DMEM culture medium containing glucose (4.5 g/l), 10% serum and 1% antibiotic agent, and cultivated in a 50 ml T-flask at 37° C. After cultivation under a condition of 5% CO2 for 24 hours, the culture solution was treated with 0.05% trypsin containing 0.02% EDTA to isolate cells, which was then inoculated in a 50 ml T-flask and cultivated for 48 hours. At this time, the number of cells was 5.76×10^6 cells/flask. A diluted solution of mulberrin in DMEM medium at a proper concentration was incorporated to the cultivated melanoma cells, and the mixture was cultivated at 37° C. for 5 days. After finishing cultivation, culture medium was thoroughly removed, and the residue was treated with 1 ml of saline-phosphate buffer solution (PBS) containing 0.02% EDTA and 0.05% trypsin to isolate cells, which were then centrifuged for 5 minutes to collect pure cells. The obtained cells were treated with a solution of 5% trichloroacetate (TCA), stirred, and centrifuged. Precipitated melanin was washed with saline-phosphate buffer solution, and treated with 1N NaOH to dissolve melanin therein. Absorbance at 475 nm was measured. Melanin concentration was determined from standard concentration curve of synthetic melanin (produced by Sigma).

Data set [5] has as its target tyrosinase. Kind of data set: Tyrosinase inhibition effect (mushroom tyrosinase, tyrosine substrate, absorbance at 475 nm). The class given is biochemical. The settings on record: pH 6.8, 37° C., 10 minutes.
Method: The substrate, tyrosine was used as a solution (0.1 mg/ml) dissolved in 0.05 M sodium phosphate buffer (pH 6.8). […] Then 200 U/ml tyrosinase (0.5 ml) was added thereto, and the reaction performed at the same temperature for 10 minutes. As a control group, buffer solution (0.5 ml) was added instead of the compound. The reaction was quenched by placing the test tube containing the reaction mixture on ice. Absorbance was measured at a wavelength of 475 nm by using a spectrophotometer.
In data set [6] the test system is skin. Kind of data set: Whitening effect (general statement). The settings on record: versus Cortex mori, kojic acid, arbutin and Ramulus mori extract.

As to `Oc1ccc(O)cc1` [Hydroquinone], in the data set on skin [1], the “carcinogenicity (in words)” value is listed as “recognized as a carcinogen” and the “skin irritation (in words)” value was “irritates the skin strongly”. The “whitening activity (in words)” value in the data set on skin [2] is on record as “irreversible whitening activity”.

`O=C1O[C@H]([C@@H](O)CO)C(O)=C1O` [Ascorbic acid (vitamin C), Ascorbic acid]: the “inhibition of tyrosinase (in words)” value with tyrosinase [3] was “relatively low activity in inhibition of tyrosinase”.

For `O=c1cc(CO)occ1O` [Kojic acid, kojic acid], in the data set on tyrosinase [3], the “inhibition of tyrosinase (in words)” value is “high activity”.

With `CC(C)=CCc1c(-c2ccc(O)cc2O)oc2c(CC=C(C)C)c(O)cc(O)c2c1=O` [Mulberrin, mulberrin], the “inhibition of melanin synthesis (in words)” value is listed as “very excellent effect in inhibiting melanin synthesis” in data set [4] and “strong whitening agent inhibiting melanin synthesis in melanocytes; also recorded: very strong inhibition effect of melanin synthesis” in data set [4] (listed as mulberrin). Further, the inhibition at 10 µg/mL in data set [4] (Mus musculus, B16, 120 h, mulberrin 10 μg/ml, 5 days, 37° C., read-out: Inhibition ratio of melanin synthesis) stood at 54.4%. For the same compound, the inhibition at 20 µg/mL in data set [4] (Mus musculus, B16, 120 h, mulberrin 20 μg/ml, 5 days, 37° C., read-out: Inhibition ratio of melanin synthesis) turned out to be 66.8%. In addition, the inhibition at 50 µg/mL in data set [4] (Mus musculus, B16, 120 h, mulberrin 50 μg/ml, 5 days, 37° C., read-out: Inhibition ratio of melanin synthesis) was determined as 74.8%. The inhibition at 100 µg/mL in data set [4] (Mus musculus, B16, 120 h, mulberrin 100 μg/ml, 5 days, 37° C., read-out: Inhibition ratio of melanin synthesis) amounted to 89.3%. Moreover, the Content of melanin in data set [4] (mulberrin 10 μg/ml, 5 days, 37° C.) was found to be 1.95 pg/cell; in data set [4] (mulberrin 20 μg/ml, 5 days, 37° C.), 1.42 pg/cell; in data set [4] (mulberrin 50 μg/ml, 5 days, 37° C.) it was 1.07 pg/cell; in data set [4] (mulberrin 100 μg/ml, 5 days, 37° C.) it was 0.46 pg/cell. Moreover, on tyrosinase [5], the “IC50 (concentration required for 50% inhibition of tyrosinase activity)” value turned out to be 0.50 µg/mL. Moreover, the “whitening effect compared with conventional whitening agents (in words)” value in the data set with skin [6] was “much more intensive whitening effect than conventional whitening agents”.
